Consider 4 compounds from publication PMC7652251, “Anti-aging Effects of Mangosteen Peel Extract and Its Phytochemical Compounds: Antioxidant Activity, Enzyme Inhibition and Molecular Docking Simulation” (Tropical Life Sciences Research, 2020).

The target of test [1] is T1, Collagenase from Clostridium histolyticum.
T1 construct: gene colG
Description: absorbance […] nm, FALGPA hydrolysis. The following applies: N-[3-(2-furyl)acryloyl]-Leu-Gly-Pro-Ala 1 mM, Tricine 50 mM pH 7.5, 37°C, 20 min pre-incubation. It is filed as biochemical, Hathewaya histolytica.

The target in test [2] is T2, porcine pancreas elastase (Sus scrofa, UniProt P00772).
T2 construct: gene CELA1; native enzyme from porcine pancreas, commercial
T2 sequence (P00772 27-266): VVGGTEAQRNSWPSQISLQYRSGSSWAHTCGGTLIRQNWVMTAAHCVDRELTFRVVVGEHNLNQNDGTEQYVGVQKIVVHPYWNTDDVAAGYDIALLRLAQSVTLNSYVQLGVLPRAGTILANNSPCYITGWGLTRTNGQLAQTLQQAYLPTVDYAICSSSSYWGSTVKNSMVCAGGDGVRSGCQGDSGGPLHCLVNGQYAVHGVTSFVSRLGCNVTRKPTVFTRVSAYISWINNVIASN
Description: absorbance […] nm, p-nitroanilide release. It is filed as biochemical.

For test [3], the target named is T3, bovine testes hyaluronidase type I-S (Bos taurus, UniProt F1MTV1).
T3 construct: gene SPAM1; native enzyme from bovine testes, commercial
T3 sequence (F1MTV1 36-553): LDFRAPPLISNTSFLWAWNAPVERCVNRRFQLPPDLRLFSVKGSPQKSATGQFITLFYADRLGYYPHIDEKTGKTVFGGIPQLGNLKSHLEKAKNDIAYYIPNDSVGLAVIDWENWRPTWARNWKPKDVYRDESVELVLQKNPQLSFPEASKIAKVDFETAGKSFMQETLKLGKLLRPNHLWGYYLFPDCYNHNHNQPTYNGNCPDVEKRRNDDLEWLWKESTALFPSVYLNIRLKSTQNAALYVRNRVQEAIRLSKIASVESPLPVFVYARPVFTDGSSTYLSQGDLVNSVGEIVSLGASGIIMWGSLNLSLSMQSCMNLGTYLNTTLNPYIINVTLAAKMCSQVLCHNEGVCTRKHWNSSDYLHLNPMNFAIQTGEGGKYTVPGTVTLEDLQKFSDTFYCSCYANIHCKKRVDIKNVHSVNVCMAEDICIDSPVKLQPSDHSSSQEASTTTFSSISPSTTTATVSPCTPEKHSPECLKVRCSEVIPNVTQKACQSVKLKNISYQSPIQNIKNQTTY
In words: turbidity […] nm, hyaluronic acid with acidic albumin. It is filed as biochemical. Conditions: phosphate 300 mM pH 5.35, 37°C, 45 min.

For test [4], the target named is T4, mushroom tyrosinase.
T4 construct: gene PPO1; PPO3 (2Y9X) is only the docking model
Description: absorbance […] nm, L-DOPA oxidation. Conditions: L-DOPA 1.5 mM stock (20 μL added), potassium phosphate 20 mM pH 6.8, room temperature, 15 min pre-incubation. The format is biochemical.

Broadly, the IC50 is the concentration at which inhibition is half-maximal. High values mean weaker potency in that assay, low ones greater potency in that assay. Regarding `CC(C)=CCc1c(O)cc2oc3cc(O)c(O)c(CC=C(C)C)c3c(=O)c2c1O` [Gamma-mangostin], the IC50 is 140 µM in test [1], 156 µM in test [2], 60.2 µM in test [3] and 127 µM in test [4].
On to `COc1c(O)cc2oc3cc(O)c(CC=C(C)C)c(O)c3c(=O)c2c1CC=C(C)C` [Alpha-mangostin], for which the IC50 in test [1] came out at 23.8 µM; in test [2] it was 50 µM; in test [3], 39.5 µM; in test [4], 173 µM.
In the case of `COc1c(O)cc2oc3cc(O)c(CC=C(C)C)c(O)c3c(=O)c2c1CCC(C)(C)O` [Garcinone D], the IC50 in test [1] was 159 µM; in test [2], 49.8 µM; in test [3] it was 204 µM; in test [4], 252 µM.
On to `CC(C)=CCc1c(O)cc2oc3cc(O)c(O)c(CCC(C)(C)O)c3c(=O)c2c1O` [Garcinone C], for which the IC50 is 79.2 µM in test [1], 49.1 µM in test [2], 180 µM in test [3] and 159 µM in test [4].
